{
  "source": "patent US20250352541A1",
  "about": "“THERAPEUTIC FOR CANCER REFRACTORY TO IMMUNE CHECKPOINT INHIBITOR” (Sumitomo Pharma Co., Ltd., priority 2022, published 2025)",
  "key": {"hERG current": {"target": "hERG current (Homo sapiens (Human), UniProt Q12809)", "sequence (Q12809 whole entry)": "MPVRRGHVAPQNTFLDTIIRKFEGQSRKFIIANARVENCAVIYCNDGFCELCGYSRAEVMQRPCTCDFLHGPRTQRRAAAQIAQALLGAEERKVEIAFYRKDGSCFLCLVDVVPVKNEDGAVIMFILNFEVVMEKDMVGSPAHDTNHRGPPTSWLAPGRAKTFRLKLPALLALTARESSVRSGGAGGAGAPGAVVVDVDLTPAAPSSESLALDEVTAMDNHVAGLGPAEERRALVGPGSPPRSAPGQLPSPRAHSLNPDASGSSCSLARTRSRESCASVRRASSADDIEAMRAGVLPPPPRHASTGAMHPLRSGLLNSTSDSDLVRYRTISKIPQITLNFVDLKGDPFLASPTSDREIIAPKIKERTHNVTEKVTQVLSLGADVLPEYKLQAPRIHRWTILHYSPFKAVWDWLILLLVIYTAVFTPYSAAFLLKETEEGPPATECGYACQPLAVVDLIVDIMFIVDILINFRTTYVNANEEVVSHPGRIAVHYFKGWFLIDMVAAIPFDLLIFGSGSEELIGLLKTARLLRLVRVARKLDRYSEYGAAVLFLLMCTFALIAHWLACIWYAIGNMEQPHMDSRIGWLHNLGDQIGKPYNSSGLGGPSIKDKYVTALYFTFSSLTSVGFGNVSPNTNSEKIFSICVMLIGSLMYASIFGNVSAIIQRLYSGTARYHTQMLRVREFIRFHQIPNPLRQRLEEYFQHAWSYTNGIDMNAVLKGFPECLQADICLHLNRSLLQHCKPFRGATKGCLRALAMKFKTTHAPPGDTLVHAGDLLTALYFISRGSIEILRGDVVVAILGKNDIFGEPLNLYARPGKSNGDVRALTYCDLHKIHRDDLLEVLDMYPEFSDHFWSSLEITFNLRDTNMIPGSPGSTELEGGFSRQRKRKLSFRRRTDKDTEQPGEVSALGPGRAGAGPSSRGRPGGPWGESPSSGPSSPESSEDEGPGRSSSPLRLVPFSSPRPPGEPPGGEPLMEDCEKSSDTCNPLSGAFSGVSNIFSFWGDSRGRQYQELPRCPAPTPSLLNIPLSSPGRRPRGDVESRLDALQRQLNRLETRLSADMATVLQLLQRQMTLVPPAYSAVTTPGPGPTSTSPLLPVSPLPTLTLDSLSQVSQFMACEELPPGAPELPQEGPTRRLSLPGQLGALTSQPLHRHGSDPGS", "assay": "hERG current blocking test", "conditions": "for hERG/CHK1: IC50 of hERG divided by IC50 of CHK1 inhibition; for IC50: read-out: hERG inhibition IC50, hERG expressing CHO cells"}, "CHK1": {"target": "CHK1 (Homo sapiens (Human), UniProt O14757)", "sequence (O14757 whole entry)": "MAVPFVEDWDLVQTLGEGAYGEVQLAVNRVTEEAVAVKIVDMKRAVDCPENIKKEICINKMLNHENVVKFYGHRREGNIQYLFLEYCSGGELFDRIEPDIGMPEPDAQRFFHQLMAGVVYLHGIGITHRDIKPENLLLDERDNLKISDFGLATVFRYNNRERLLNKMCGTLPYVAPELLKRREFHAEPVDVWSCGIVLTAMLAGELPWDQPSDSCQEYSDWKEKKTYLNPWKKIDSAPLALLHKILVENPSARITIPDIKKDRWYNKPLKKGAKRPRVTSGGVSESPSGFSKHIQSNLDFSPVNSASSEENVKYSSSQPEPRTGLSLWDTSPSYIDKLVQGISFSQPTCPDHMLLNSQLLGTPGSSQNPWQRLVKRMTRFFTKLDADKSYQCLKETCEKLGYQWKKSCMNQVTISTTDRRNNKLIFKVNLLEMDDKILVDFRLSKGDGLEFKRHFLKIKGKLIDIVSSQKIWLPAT", "assay": "CHK1 inhibitory activity test (IMAP TR-FRET)"}, "ES-2 cells": {"system": "ES-2 cells", "assay": "Cell growth suppression experiment", "format": "cell-based", "description": "ES-2 cells were obtained from the American Type Culture Collection (ATCC). These cells were cultured at 37° C. in the presence of 5% CO2 in a 10% fetal bovine serum, 1% penicillin/streptomycin containing McCoy's 5a medium.\n500 cells were seeded for each well in a 384-well plate, and the evaluated compound was added so that the final concentration of DMSO would be 0.1% to culture the cells for 2 days. After completion of the culture, the cell viability rate was calculated using CellTiter-Glo® 3D Reagent (Promega, G968B).\nThe results of cell growth suppression test on representative compounds of the present disclosure are listed in the following table based on the ranking of I, IT, III, IV, and V (1000 nM<I, 1000 nM>TI>300 nM, 300 nM>III>100 nM, 100 nMV>IV>30 nM, 30 nM>V)."}, "CYP3A4": {"target": "CYP3A4 (Homo sapiens (Human), UniProt P08684)", "sequence (P08684 whole entry)": "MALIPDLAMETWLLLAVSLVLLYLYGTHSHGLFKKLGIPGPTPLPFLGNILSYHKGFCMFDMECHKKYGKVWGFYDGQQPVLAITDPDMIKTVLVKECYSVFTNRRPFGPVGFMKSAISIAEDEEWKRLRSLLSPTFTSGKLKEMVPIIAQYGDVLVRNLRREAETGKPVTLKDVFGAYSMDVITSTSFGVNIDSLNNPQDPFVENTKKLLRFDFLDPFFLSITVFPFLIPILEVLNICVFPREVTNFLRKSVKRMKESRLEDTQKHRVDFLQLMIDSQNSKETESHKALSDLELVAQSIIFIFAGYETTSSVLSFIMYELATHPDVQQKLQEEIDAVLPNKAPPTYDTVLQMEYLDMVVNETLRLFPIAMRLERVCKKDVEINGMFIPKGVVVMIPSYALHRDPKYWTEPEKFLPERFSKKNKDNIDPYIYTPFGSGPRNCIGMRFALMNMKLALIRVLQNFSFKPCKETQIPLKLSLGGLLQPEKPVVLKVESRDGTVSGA", "assay": "CYP3A4 MBI and enzyme inactivation clearance evaluation", "format": "in vitro ADME", "conditions": "for Factor of change in IC50 value: human liver microsome, pre-incubation in the presence of NADPH", "description": "The effect and mode of inhibition of the test compound on CYP3A4 were evaluated using a human liver microsome as an enzyme source and midazolam or testosterone as a substrate. […] The IC50 value was calculated from a concentration plot."}},
  "data": [
    {"smiles": "COc1ccnc(OCCCN)c1-c1cc(Nc2cnc(C(F)(F)F)cn2)n[nH]1", "note": "[Example 16, N-{5-[2-(3-aminopropoxy)-4-methoxypyridin-3-yl]-1-H-pyrazol-3-yl}-5-(trifluoromethyl)pyrazin-2-amine]", "values": [
      {"measurement": "hERG/CHK1", "setting": "hERG current", "result": "<888"},
      {"measurement": "IC50", "setting": "hERG current", "result": "< 2.7", "unit": "µM"},
      {"measurement": "IC50", "setting": "CHK1", "result": 3.04, "unit": "nM"}
    ]},
    {"smiles": "COc1cncc(OC[C@@H](F)CN)c1-c1cc(Nc2cnc(C#N)cn2)n[nH]1", "note": "[Example 29, 5-[(5-{3-[(2S)-3-amino-2-fluoropropoxy]-5-methoxypyridin-4-yl}-1H-pyrazol-3-yl)amino]pyrazine-2-carbonitrile]", "values": [
      {"measurement": "cell growth suppression effect compared with prexasertib", "setting": "ES-2 cells", "result": "excellent cell growth suppression effect that is equivalent to that of prexasertib"},
      {"measurement": "Factor of change in IC50 value", "setting": "CYP3A4", "result": "Not Detected"},
      {"measurement": "hERG/CHK1", "setting": "hERG current", "result": 18667},
      {"measurement": "IC50", "setting": "hERG current", "result": 11.2, "unit": "µM"},
      {"measurement": "IC50", "setting": "CHK1", "result": 0.6, "unit": "nM"},
      {"measurement": "inhibition at 0.0001 µM", "setting": "CHK1; read-out: CHK1 inhibition % at 0.1 nM", "result": "< 5", "unit": "%"}
    ]},
    {"smiles": "COc1cncc(OC[C@@]2(F)CCNC2)c1-c1cc(Nc2cnc(C#N)cn2)n[nH]1", "note": "[Example 22, (R)-5-[(5-{3-[(3-fluoropyrrolidin-3-yl)methoxy]-5-methoxypyridin-4-yl}-1H-pyrazol-3-yl)amino]pyrazine-2-carbonitrile]", "values": [
      {"measurement": "cell growth suppression effect compared with prexasertib", "setting": "ES-2 cells", "result": "excellent cell growth suppression effect that is equivalent to that of prexasertib"},
      {"measurement": "hERG/CHK1", "setting": "hERG current", "result": 12500},
      {"measurement": "IC50", "setting": "hERG current", "result": 3, "unit": "µM"},
      {"measurement": "IC50", "setting": "CHK1", "result": 0.24, "unit": "nM"},
      {"measurement": "effect of suppressing CHK1 activity compared with prexasertib", "setting": "CHK1", "result": "more potent effect of suppressing CHK1 activity than prexasertib"}
    ]},
    {"smiles": "COc1cncc(OC[C@H](F)CN)c1-c1cc(Nc2cnc(C#N)cn2)n[nH]1", "note": "[Example 30, 5-[(5-{3-[(2R)-3-amino-2-fluoropropoxy]-5-methoxypyridin-4-yl}-1H-pyrazol-3-yl)amino]pyrazine-2-carbonitrile]", "values": [
      {"measurement": "cell growth suppression effect compared with prexasertib", "setting": "ES-2 cells", "result": "excellent cell growth suppression effect that is equivalent to that of prexasertib"},
      {"measurement": "Factor of change in IC50 value", "setting": "CYP3A4", "result": "Not Detected"},
      {"measurement": "hERG/CHK1", "setting": "hERG current", "result": 40000},
      {"measurement": "IC50", "setting": "hERG current", "result": 10.4, "unit": "µM"},
      {"measurement": "IC50", "setting": "CHK1", "result": 0.26, "unit": "nM"},
      {"measurement": "effect of suppressing CHK1 activity compared with prexasertib", "setting": "CHK1", "result": "more potent effect of suppressing CHK1 activity than prexasertib"}
    ]},
    {"smiles": "COc1ccnc(OCC2(CN)CC2)c1-c1cc(Nc2cnc(C#N)cn2)n[nH]1", "note": "[Example 37, 5-{[5-(2-{[1-(aminomethyl)cyclopropyl]methoxy}-4-methoxypyridin-3-yl)-1H-pyrazol-3-yl]amino}pyrazine-2-carbonitrile]", "values": [
      {"measurement": "cell growth suppression effect compared with prexasertib", "setting": "ES-2 cells", "result": "excellent cell growth suppression effect that is equivalent to that of prexasertib"},
      {"measurement": "inhibition of CYP3A4 based on MBI", "setting": "CYP3A4", "result": "do not exhibit inhibition of CYP3A4 based on MBI"},
      {"measurement": "Factor of change in IC50 value", "setting": "CYP3A4", "result": "Not Detected"},
      {"measurement": "hERG/CHK1", "setting": "hERG current", "result": "<8438"},
      {"measurement": "IC50", "setting": "hERG current", "result": "< 2.7", "unit": "µM"},
      {"measurement": "IC50", "setting": "CHK1", "result": 0.32, "unit": "nM"},
      {"measurement": "effect of suppressing CHK1 activity compared with prexasertib", "setting": "CHK1", "result": "more potent effect of suppressing CHK1 activity than prexasertib"}
    ]},
    {"smiles": "COc1cncc(OC[C@]2(F)CCNC2)c1-c1cc(Nc2cnc(C#N)cn2)n[nH]1", "note": "[Example 20, (S)-5-[(5-{3-[(3-fluoropyrrolidin-3-yl)methoxy]-5-methoxypyridin-4-yl}-1H-pyrazol-3-yl)amino]pyrazine-2-carbonitrile]", "values": [
      {"measurement": "cell growth suppression effect compared with prexasertib", "setting": "ES-2 cells", "result": "excellent cell growth suppression effect that is equivalent to that of prexasertib"},
      {"measurement": "hERG/CHK1", "setting": "hERG current", "result": 11176},
      {"measurement": "IC50", "setting": "hERG current", "result": 3.8, "unit": "µM"},
      {"measurement": "IC50", "setting": "CHK1", "result": 0.34, "unit": "nM"},
      {"measurement": "effect of suppressing CHK1 activity compared with prexasertib", "setting": "CHK1", "result": "more potent effect of suppressing CHK1 activity than prexasertib"}
    ]},
    {"smiles": "COc1cncc(OC[C@@H]2CNCCO2)c1-c1cc(Nc2cnc(C#N)cn2)n[nH]1", "note": "(stereo in doubt) [Example 12, 5-[(5-{3-methoxy-5-[(morpholin-2-yl)methoxy]pyridin-4-yl}-1H-pyrazol-3-yl)amino]pyrazine-2-carbonitrile]", "values": [
      {"measurement": "hERG/CHK1", "setting": "hERG current", "result": 9118},
      {"measurement": "IC50", "setting": "hERG current", "result": 3.1, "unit": "µM"},
      {"measurement": "IC50", "setting": "CHK1", "result": 0.34, "unit": "nM"},
      {"measurement": "effect of suppressing CHK1 activity compared with prexasertib", "setting": "CHK1", "result": "more potent effect of suppressing CHK1 activity than prexasertib"}
    ]},
    {"smiles": "COc1nccc(OCC2(CN)CC2)c1-c1cc(Nc2cnc(C#N)cn2)n[nH]1", "note": "[Example 38, 5-{[5-(4-{[1-(aminomethyl)cyclopropyl]methoxy}-2-methoxypyridin-3-yl)-1H-pyrazol-3-yl]amino}pyrazine-2-carbonitrile]", "values": [
      {"measurement": "cell growth suppression effect compared with prexasertib", "setting": "ES-2 cells", "result": "excellent cell growth suppression effect that is equivalent to that of prexasertib"},
      {"measurement": "IC50", "setting": "CHK1", "result": 0.7, "unit": "nM"}
    ]},
    {"smiles": "COc1cncc(OC[C@H](C)CN)c1-c1cc(Nc2cnc(C#N)cn2)n[nH]1", "note": "[Example 28]", "values": [
      {"measurement": "cell growth suppression effect compared with prexasertib", "setting": "ES-2 cells", "result": "excellent cell growth suppression effect that is equivalent to that of prexasertib"},
      {"measurement": "IC50", "setting": "CHK1", "result": 0.5, "unit": "nM"},
      {"measurement": "effect of suppressing CHK1 activity compared with prexasertib", "setting": "CHK1", "result": "more potent effect of suppressing CHK1 activity than prexasertib"}
    ]},
    {"smiles": "COc1cncc(OC[C@H]2CNCCO2)c1-c1cc(Nc2cnc(C#N)cn2)n[nH]1", "note": "(stereo in doubt) [Example 13, 5-[(5-{3-methoxy-5-[(morpholin-2-yl)methoxy]pyridin-4-yl}-1H-pyrazol-3-yl)amino]pyrazine-2-carbonitrile]", "values": [
      {"measurement": "hERG/CHK1", "setting": "hERG current", "result": "<3649"},
      {"measurement": "IC50", "setting": "hERG current", "result": "< 2.7", "unit": "µM"},
      {"measurement": "IC50", "setting": "CHK1", "result": 0.74, "unit": "nM"}
    ]},
    {"smiles": "COc1nccc(OCC2(CO)CNC2)c1-c1cc(Nc2cnc(C#N)cn2)n[nH]1", "note": "[Example 8, 5-{[5-(4-{[3-(hydroxymethyl)azetidin-3-yl]methoxy}-2-methoxypyridin-3-yl)-1H-pyrazol-3-yl]amino}pyrazine-2-carbonitrile]", "values": [
      {"measurement": "Factor of change in IC50 value", "setting": "CYP3A4", "result": "Not Detected"},
      {"measurement": "hERG/CHK1", "setting": "hERG current", "result": ">1000000"},
      {"measurement": "IC50", "setting": "hERG current", "result": "> 100", "unit": "µM"},
      {"measurement": "IC50", "setting": "CHK1", "result": "< 0.1", "unit": "nM"},
      {"measurement": "effect of suppressing CHK1 activity compared with prexasertib", "setting": "CHK1", "result": "more potent effect of suppressing CHK1 activity than prexasertib"}
    ]},
    {"smiles": "CN[C@@H]1CC[C@@H](Oc2cncc(OC)c2-c2cc(Nc3cnc(C#N)cn3)n[nH]2)C1", "note": "[Example 35, 5-{[5-(3-methoxy-5-{[(1R,3R)-3-(methylamino)cyclopentyl]oxy}pyridin-4-yl)-1H-pyrazol-3-yl]amino}pyrazine-2-carbonitrile]", "values": [
      {"measurement": "cell growth suppression effect compared with prexasertib", "setting": "ES-2 cells", "result": "excellent cell growth suppression effect that is equivalent to that of prexasertib"},
      {"measurement": "IC50", "setting": "CHK1", "result": 0.62, "unit": "nM"}
    ]}
  ]
}
